Source: patent US20200000873A1, “METHODS FOR IMPROVING THE COGNITIVE FUNCTIONS OF A SUBJECT” (The Regents of the University of California, priority 2017, published 2020)

Legend:
[1] = tested on: Brown Norway rats; experiment: Probabilistic reversal learning task (PRLT) after long-term (21 days) administration of oxytocin; type: in vivo, rat
Source text: (§1) Probabilistic learning, an aspect of executive function, can be assessed in rodents using a probabilistic reversal learning task (PRLT). A PRLT is typically a 1-hour test using two recessed lights in the back of the operant chamber as stimuli (see, FIGS. 2, 3 and 4). After illumination and subsequent extinguishing of the magazine light via nose-poke, a 2 second inter-trial interval occurs, which is then immediately followed by a 10 second period during which two apertures are illuminated wherein the rat can respond via nose-poke. One of the two stimuli is designated the target stimulus, and responses to it are rewarded more frequently (e.g., rewarded 80% of the time) (aperture light extinguished and reward delivered into the magazine) and punished less frequently (e.g., 20% of the time) (aperture light extinguished and house light illuminated for a 4-second timeout period during which no reward was delivered). The other stimulus was designated the non-target stimulus, to which responses are rewarded less frequently (e.g., 20% of the time) and punished more frequently (80% of the time). Initial target and non-target locations are alternated among the testing chambers such that the first target of the session is, for example, the left light in four of the eight chambers, and the right in the others. […] After first criterion acquisition, the target and non-target locations are reversed. The subject then has to recognize that this change, or “switch,” had occurred and adjust its responses accordingly. After another 8 consecutive correct responses, the ratios are switched again. This pattern is repeated for the remainder of the 1-hour session. The number of switches the subject is able to complete within the testing period was the primary outcome variable of PRLT to measure reversal learning. An additional primary outcome measure, trials to first criterion, provided a measure of initial reinforcement learning without the confound of reversal learning included.
(§2) Several latency measures included mean target latency (millisecond (ms) to respond in the target stimulus), mean non-target latency (ms to respond in the non-target stimulus), and mean reward latency (ms to collect the reward).
(§3) Rats (Brown Norway rats or Long Evans rats) executive function was tested using a nine-choice operant box (e.g., see FIG. 2). The nine-choice operant box has nine depressions in which a rat can poke its nose into (see FIG. 2), where each depression comprises a light emitting diode (LED). A rat was placed in the box and two of the LEDs were illuminated (e.g., see FIG. 3). One LED, the ‘target’, rewarded a rat's nose poke 80% of the time with food while the other LED, the ‘nontarget’, rewarded a rat's nose poke only 20% of the time. After eight consecutive responses in which the ‘target’ LED was selected, the reward ratios for the two LED's were switched, and the next block of testing was begun. Brown Norway rats were used as test subjects while Long Evans rats were used as controls.
(§4) Scoring of executive function was based on the number of switches a rat was able to complete within a one-hour test period, as well as the number of block changes a rat can progress through. In particular, the scoring and conclusions of executive function were made as follows:
(§5) A primary measure of executive function. The number of times the ‘target’ stimulus switches following eight consecutive “correct” responses by the subject. The number of switches a rat is able to complete within a one-hour test period indicates how quickly the rat is able to detect and adjust to reversals. The more switches completed by the rat, the better the executive function of the rat.
(§6) A primary measure of executive function. Indicates how quickly rat was able to progress through the blocks—the block changes whenever the target switches, so if the subject completed five blocks and is working on the sixth when the one hour testing session ends. […]

[2] = tested on: Brown Norway rats; experiment: Probabilistic reversal learning task (PRLT), single (acute) administration of oxytocin; type: in vivo, rat
Source text: as §1, §2, §3, §4, §5, §6

[3] = tested on: humans; settings: humans treated with oxytocin, reported; cited from earlier work
[4] = oxytocin 1.00 mg/kg, Brown Norway rats

SMILES: CC[C@H](C)[C@@H]1NC(=O)[C@H](Cc2ccc(O)cc2)NC(=O)[C@@H](N)CSSC[C@@H](C(=O)N2CCC[C@H]2C(=O)N[C@@H](CC(C)C)C(=O)NCC(N)=O)NC(=O)[C@H](CC(N)=O)NC(=O)[C@H](CCC(N)=O)NC1=O [oxytocin]
- trials to first criterion ([1]; 1 mg/kg OT vs. vehicle in BN rats, long-term administration): appears to reduce
- number of switches in the PRLT ([1]; BN rats previously treated with 0.04 mg/kg OT compared with LE rats): LE rats exhibited more switches
- number of switches in the PRLT ([1]; BN rats previously treated with 0.2 mg/kg OT compared with LE rats): LE rats exhibited more switches
- number of switches in the PRLT ([1]; BN rats treated with 1 mg/kg OT vs. vehicle-treated BN rats, long-term administration): significantly more switches
- executive function after discontinuation of OT ([1]; BN rats, 1.0 mg/kg OT for 21 days, tested approximately one week or more after discontinuation): persistent improvement
- time post treatment at which improvement of executive function was seen [1, 4]: 7 days
- executive function, effect of dose ([2]; BN rats, 1.00 mg/kg vs. lower doses 0.04 mg/kg and 0.20 mg/kg): dose dependent
- number of switches in the PRLT ([2]; acute OT 0.04 mg/kg, BN rats vs. vehicle-treated LE rats): fewer switches
- total trials to initial criterion ([2]; acute OT 1 mg/k/g, BN rats vs. both vehicle-treated BN and LE rats): reduced
- total number of switches completed in the PRLT ([2]; acute OT 1 mg/kg, BN rats vs. vehicle): increased
- probabilistic learning of subjects ([2]; administration of oxytocin): significantly improved
- improvement in executive function [2, 4]: significant
- number of switches ([2]; oxytocin administered to Brown Norway rats, dose not stated): increased
- executive function of the animal subjects ([2]; oxytocin administered to animal subjects): significantly improved
- cognitive performance and memory [3]: Impairments
